Here are results for 29 compounds from patent publication US20110105509A1 (Wyeth, LLC, priority 2009, published 2011).

SMILES strings stand for the structures. pIC50: −log10 of the molar value.

The target of the assay is T1, CRTH2 (Homo sapiens, UniProt Q9Y5Y4).
T1 construct: expressed in transfected cells; host or cells: CHO cells
T1 sequence (Q9Y5Y4 1-395): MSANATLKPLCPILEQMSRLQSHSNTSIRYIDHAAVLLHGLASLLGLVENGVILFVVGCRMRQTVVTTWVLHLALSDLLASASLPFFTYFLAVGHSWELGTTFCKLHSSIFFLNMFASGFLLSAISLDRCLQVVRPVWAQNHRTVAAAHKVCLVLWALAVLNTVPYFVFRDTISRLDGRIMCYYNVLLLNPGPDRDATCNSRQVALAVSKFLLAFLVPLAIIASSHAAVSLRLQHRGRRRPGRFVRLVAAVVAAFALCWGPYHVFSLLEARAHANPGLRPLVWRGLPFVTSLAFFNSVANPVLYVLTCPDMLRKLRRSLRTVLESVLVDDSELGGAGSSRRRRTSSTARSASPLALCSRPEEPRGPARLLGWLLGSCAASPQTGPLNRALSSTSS
Kind of assay: FRET based competitive immunoassay (cAMP) in CRTH2 expressing CHO cells. Format: cell-based. The following applies: CRTH2 expressing CHO cells incubated with forskolin and PGD2; Eu3+ cryptate-labeled anti-cAMP and d2-labeled cAMP. As to the method: FRET Assay: To evaluate potency compounds were tested in a FRET based competitive immunoassay in which CRTH2 expressing CHO cells were incubated in the presence of forskolin and PGD2 along with Eu3+ cryptate-labeled anti-cAMP and d2-labeled cAMP.
As for `Cc1c(-c2ccc(=O)n(CCCC(F)(F)F)c2)c2cc(F)ccc2n1CC(=O)NS(C)(=O)=O` [Example 318, 2-(5-fluoro-2-methyl-3-(6-oxo-1-(4,4,4-trifluorobutyl)-1,6-dihydropyridin-3-yl)-1H-indol-1-yl)-N-(methylsulfonyl)acetamide], the pIC50 is < 6.00.

For the compound `Cc1c(-c2ccc(=O)n(Cc3ccccc3)c2)c2cc(F)ccc2n1CC(=O)NS(=O)(=O)C1CC1` [Example 319, 2-(3-(1-Benzyl-6-oxo-1,6-dihydropyridin-3-yl)-5-fluoro-2-methyl-1H-indol-1-yl)-N-(cyclo-propyl-sulfonyl)acetamide], the pIC50 was < 6.00.

As to `Cc1c(Cc2ccc(=O)n(Cc3ccc(F)cc3F)n2)c2cc(F)ccc2n1CC(=O)NS(C)(=O)=O` [Example 320, 2-(3-((1-(2,4-difluorobenzyl)-6-oxo-1,6-dihydropyridazin-3-yl)methyl)-5-fluoro-2-methyl-1H-indol-1-yl)-N-(methylsulfonyl)acetamide], the pIC50 is < 6.00.

Turning to `Cc1c(Cc2ccc(=O)n(Cc3ccc(F)c(F)c3)c2)c2cc(F)ccc2n1CC(=O)NS(C)(=O)=O` [Example 321, 2-(3-((1-(3,4-difluorobenzyl)-6-oxo-1,6-dihydropyridin-3-yl)methyl)-5-fluoro-2-methyl-1H-indol-1-yl)-N-(methylsulfonyl)acetamide], the pIC50 is < 6.00.

In the case of `Cc1c(-c2nn(CCOc3ccccc3)c(=O)c3ccccc23)c2cc(Cl)ccc2n1CC(=O)NS(C)(=O)=O` [Example 322, 2-(5-Chloro-2-methyl-3-(4-oxo-3-(2-phenoxyethyl)-3,4-dihydrophthalazin-1-yl)-1H-indol-1-yl)-N-(methylsulfonyl)acetamide], the pIC50 is < 6.00.

As to `Cc1c(-c2cn(Cc3ccccc3)c(=O)c3ccccc23)c2cc(F)ccc2n1CC(=O)NS(C)(=O)=O` [Example 323, 2-(3-(2-benzyl-1-oxo-1,2-dihydroisoquinolin-4-yl)-5-fluoro-2-methyl-1H-indol-1-yl)-N-(methylsulfonyl)acetamide], the pIC50 is 6.29.

With `Cc1c(-c2ccc(=O)n(Cc3ccccc3)n2)c2cc(F)ccc2n1CC(=O)O` [Example 324, 2-(3-(1-benzyl-6-oxo-1,6-dihydropyridazin-3-yl)-5-fluoro-2-methyl-1H-indol-1-yl)-acetic acid], the pIC50 is 8.22.

In turn, `Cc1c(-c2nn(C(C)C)c(=O)c3ccccc23)c2ccccc2n1CC(=O)O` [Example 326, [3-(3-isopropyl-4-oxo-3,4-dihydrophthalazin-1-yl)-2-methyl-1H-indol-1-yl]acetic acid] showed a pIC50 of 7.21.

`Cc1c(-c2nn(CC(C)C)c(=O)c3ccccc23)c2cc(F)ccc2n1CC(=O)O` [Example 327, {5-fluoro-2-methyl-3-[3-(2-methylpropyl)-4-oxo-3,4-dihydrophthalazin-1-yl]-1H-indol-1-yl}acetic acid] showed a pIC50 of 7.89.

Compound `Cc1c(-c2nn(Cc3ccccc3)c(=O)c3ccccc23)c2cc(F)ccc2n1CC(=O)O` [Example 328, [3-(3-benzyl-4-oxo-3,4-dihydrophthalazin-1-yl)-5-fluoro-2-methyl-1H-indol-1-yl]-acetic acid] had a pIC50 of 7.92.

Turning to `Cc1c(-c2nn(Cc3cccc(F)c3)c(=O)c3ccccc23)c2cc(F)ccc2n1CC(=O)O` [Example 329, {5-fluoro-3-[3-(3-fluorobenzyl)-4-oxo-3,4-dihydrophthalazin-1-yl]-2-methyl-1H-indol-1-yl}acetic acid], the pIC50 is 8.52.

Compound `Cc1c(-c2nn(C(C)C)c(=O)c3ccccc23)c2cc(F)ccc2n1CC(=O)O` [Example 330, {5-fluoro-2-methyl-3-[3-(1-methylethyl)-4-oxo-3,4-dihydrophthalazin-1-yl]-1H-indol-1-yl}acetic acid] had a pIC50 of 7.82.

The compound `Cc1c(-c2nn(Cc3ccc(Cl)cc3Cl)c(=O)c3ccccc23)c2cc(Cl)ccc2n1CC(=O)O` [Example 331, {5-chloro-3-[3-(2,4-dichlorobenzyl)-4-oxo-3,4-dihydrophthalazin-1-yl]-2-methyl-1H-indol-1-yl}acetic acid] showed a pIC50 of 8.52.

Take `Cc1c(-c2nn(Cc3ccc(S(C)(=O)=O)cc3)c(=O)c3ccccc23)c2cc(Cl)ccc2n1CC(=O)O` [Example 332, (5-chloro-2-methyl-3-{3-[4-(methylsulfonyl)benzyl]-4-oxo-3,4-dihydro-phthalazin-1-yl}-1H-indol-1-yl)acetic acid]: the pIC50 was 7.59.

`Cc1c(-c2ccc(=O)n(CC(C)C)n2)c2cc(F)ccc2n1CC(=O)O` [Example 333, 2-(5-fluoro-3-(1-isobutyl-6-oxo-1,6-dihydropyridazin-3-yl)-2-methyl-1H-indol-1-yl)acetic acid] gave a pIC50 of 6.95.

As for `Cc1c(-c2ccc(=O)n(C(C)C)n2)c2cc(F)ccc2n1CC(=O)O` [Example 334, [5-fluoro-3-(1-isopropyl-6-oxo-1,6-dihydropyridazin-3-yl)-2-methyl-1H-indol-1-yl]-acetic acid], the pIC50 was 6.68.

The compound `Cc1c(Cc2ccc(=O)n(Cc3cc(F)ccc3F)n2)c2cc(F)ccc2n1CC(=O)O` [Example 336, (3-{[1-(2,5-difluorobenzyl)-6-oxo-1,6-dihydropyridazin-3-yl]methyl}-5-fluoro-2-methyl-1H-indol-1-yl)acetic acid] showed a pIC50 of 8.30.

Turning to `Cc1c(Cc2ccc(=O)n(Cc3ccccc3)n2)c2cc(F)ccc2n1CC(=O)O` [Example 337, {3-[(1-benzyl-6-oxo-1,6-dihydropyridazin-3-yl)methyl]-5-fluoro-2-methyl-1H-indol-1-yl}acetic acid], the pIC50 was 8.00.

`Cc1c(Cc2ccc(=O)n(Cc3c(F)cccc3F)n2)c2cc(F)ccc2n1CC(=O)O` [Example 338, (3-{[1-(2,6-difluorobenzyl)-6-oxo-1,6-dihydropyridazin-3-yl]methyl}-5-fluoro-2-methyl-1H-indol-1-yl)acetic acid] had a pIC50 of 8.30.

For the compound `Cc1c(Cc2ccc(=O)n(Cc3cccc(F)c3F)n2)c2cc(F)ccc2n1CC(=O)O` [Example 339, (3-{[1-(2,3-difluorobenzyl)-6-oxo-1,6-dihydropyridazin-3-yl]methyl}-5-fluoro-2-methyl-1H-indol-1-yl)acetic acid], the pIC50 was 8.40.

Turning to `Cc1c(Cc2ccc(=O)n(Cc3ccccc3F)n2)c2cc(F)ccc2n1CC(=O)O` [Example 340, (3-{[1-(2-fluorobenzyl)-6-oxo-1,6-dihydropyridazin-3-yl]methyl}-5-fluoro-2-methyl-1H-indol-1-yl)acetic acid], the pIC50 was 8.52.

As to `Cc1c(Cc2ccc(=O)n(Cc3cccc(F)c3)n2)c2cc(F)ccc2n1CC(=O)O` [Example 341, (3-{[1-(3-fluorobenzyl)-6-oxo-1,6-dihydropyridazin-3-yl]methyl}-5-fluoro-2-methyl-1H-indol-1-yl)acetic acid], the pIC50 was 7.48.

For the compound `Cc1c(Cc2ccc(=O)n(Cc3ccc(F)cc3)n2)c2cc(F)ccc2n1CC(=O)O` [Example 342, (3-{[1-(4-fluorobenzyl)-6-oxo-1,6-dihydropyridazin-3-yl]methyl}-5-fluoro-2-methyl-1H-indol-1-yl)acetic acid], the pIC50 is 7.89.

`Cc1c(Cc2ccc(=O)n(CC(C)(C)C)n2)c2cc(F)ccc2n1CC(=O)O` [Example 343, (3-{[1-(2,2-dimethylpropyl)-6-oxo-1,6-dihydropyridazin-3-yl]methyl}-5-fluoro-2-methyl-1H-indol-1-yl)acetic acid] showed a pIC50 of 6.85.

For the compound `Cc1c(Cc2ccc(=O)n(CCCC(F)(F)F)n2)c2cc(F)ccc2n1CC(=O)O` [Example 344, 2-(5-fluoro-2-methyl-3-((6-oxo-1-(4,4,4-trifluorobutyl)-1,6-dihydropyridazin-3-yl)-methyl)-1H-indol-1-yl)acetic acid], the pIC50 is 7.77.

The compound `Cc1c(Cc2ccc(=O)n(CC(F)(F)F)n2)c2cc(F)ccc2n1CC(=O)O` [Example 345, (5-fluoro-2-methyl-3-{[6-oxo-1-(2,2,2-trifluoroethyl)-1,6-dihydropyridazin-3-yl]-methyl}-1H-indol-1-yl)acetic acid] gave a pIC50 of 7.51.

In turn, `Cc1c(Cc2ccc(=O)n(Cc3ccccc3)c2)c2cc(F)ccc2n1CC(=O)O` [Example 346, {3-[(1-benzyl-6-oxo-1,6-dihydropyridin-3-yl)methyl]-5-fluoro-2-methyl-1H-indol-1-yl}acetic acid] gave a pIC50 of 7.96.

In turn, `Cc1c(Cc2ccc(=O)n(Cc3ccccc3)c2)c2cc(Cl)ccc2n1CC(=O)O` [Example 347, {3-[(1-benzyl-6-oxo-1,6-dihydropyridin-3-yl)methyl]-5-chloro-2-methyl-1H-indol-1-yl}acetic acid] had a pIC50 of 7.96.

Compound `Cc1c(Cc2ccc(=O)n(Cc3ccccc3)c2)c2ccccc2n1CC(=O)O` [Example 348, {3-[(1-benzyl-6-oxo-1,6-dihydropyridin-3-yl)methyl]-2-methyl-1H-indol-1-yl}acetic acid] had a pIC50 of 7.09.

For orientation: pIC50 means the IC50 on a negative log10 scale, so that one unit is a factor of ten.
